Measured values from patent US20160272645A1, “Heterocyclic Compounds and Methods of Use” (MEDIVATION TECHNOLOGIES, INC., priority 2013, published 2016).

Columns and labels:
BTK = biological target: T1, BTK (Homo sapiens, UniProt Q06187); test: BTK kinase profiling, HotSpot radiometric assay (Reaction Biology); assay type: biochemical; details: ATP 10 μM; for inhibition at 0.01 µM: compound 0.01 μM, read-out: BTK @ 0.01 μM (% Inh); for inhibition at 0.1 µM: compound 0.1 μM, read-out: BTK @ 0.1 μM (% Inh); for inhibition at 1 µM: compound 1 μM, read-out: BTK @ 1 μM (% Inh)
T1 construct: purchased Reaction Biology Corporation
Method: (§1) Compounds of the invention were profiled in a 10 dose IC50 panel against BTK and PI3Kδ, both provided by Reaction Biology Corporation.
BTK assay: In vitro profiling protein kinases was performed using the “HotSpot” assay platform. Briefly, specific kinase/substrate pairs along with required cofactors were prepared in reaction buffer. Compounds were prepared as 10 mM stock solutions in DMSO. Compounds were delivered into the reaction, followed 15-20 minutes later by addition of a mixture of ATP (Sigma, St. Louis Mo.) and ^33P ATP (Perkin Elmer, Waltham Mass.) to a final concentration of 10 μM. Reactions were carried out at RT for 120 min, followed by spotting of the reactions onto P81 ion exchange filter paper (Whatman Inc., Piscataway, N.J.). Unbound phosphate was removed by extensive washing of filters in 0.75% Phosphoric acid. […] ICso values and curve fits were obtained using Prism (GraphPad Software). Buffer Conditions: 20 mM Hepes (pH 7.5), 10 mM MgCl2, 1 mM EGTA, 0.02% Brij35, 0.02 mg/mL BSA, 0.1 mM Na3VO4, 2 mM DTT, 1% DMSO.

[1] = system: CD69+B220+ cells (mouse spleen cells); test: B cell activation assay (IgD-stimulated CD69 on B220+ spleen cells, FACS); assay type: cell-based; details: 100 nM test compound, 30 min, then IgD 3 μg/mL 4 h, read-out: CD69 @ 100 nM (% Inh)
Method: 1 Female mouse approximately 2 months old was euthanized with CO2 and the spleen removed. The tissue was homogenized with a polished glass microscope slide. The cells were collected in 5 mL complete medium (RPMI+10% FBS+pen/strep), placed in a 15 mL falcon tube and centrifuged at 500×g for 5 min. The supernatant was discarded and the pellet was resuspended in 3 mL of ACK lysis buffer (NH4Cl 0.17M, KHCO3 10 mM, EDTA-Na2 0.1 mM, pH 7.2), incubated at 37° C. for 5 min. 2 mL complete medium was added and the mixture centrifuged at 500×g for 5 min. The supernatant was discarded and the pellet resuspended in 1 mL complete medium. The mixture was passed through a […] cell strainer and collect in 50 mL falcon tube. Enough medium was added to have a total of 10 mL. The cells were counted and seeded in 24 or 48-well plate in 1 mL complete medium at 10^6 cells/mL. The plate was placed in a 37° C. incubator for 15 min. The cells were treated for 30 min at 37° C. with 100 nM test compound dissolved in 100% DMSO. 3 μL IgD (Accurate chemical and scientific corp.) was added at a final concentration of 3 μg/mL and the mixture incubated at 37° C. for 4 h. The cells were collected in 1.5 mL eppendorf tubes, centrifuged at 500×g for 5 min and then resuspended in 100 μL of PBS+2% FBS. The following antibodies were added: α-B220 PE (pharmingen #553090), α-CD69 APC (pharmingen #60689), live/dead fixable aqua dead cell stain kit (life technologies # L34957) all at 1:300, and the mixture incubated for 15 min at 4° C. in the dark. To this was added 900 μL of PBS+2% FBS and the mixture centrifuged at 500×g for 5 min. The supernatant was removed and the pellet resuspended in 300 μL of PBS+2% FBS and mixed well. The mixture was transferred to a cytometer tube. The samples were run in the FACS Canto II cytometer and quantified by the number of CD69+B220+ cells as a percentage of the total number of B220+ alive cells.

PI3Kδ [2] = biological target: T2, PI3Kδ (Homo sapiens, UniProt O00329); test: PI3Kδ kinase profiling, HTRF PIP3 displacement assay (Reaction Biology); assay type: biochemical; details: ATP 10 μM; for inhibition at 0.01 µM: compound 0.01 μM, read-out: PI3Kδ @ 0.01 μM (% Inh); for inhibition at 0.1 µM: compound 0.1 μM, read-out: PI3Kδ @ 0.1 μM (% Inh)
T2 construct: purchased Reaction Biology Corporation

PI3Kδ [3] = biological target: T2, PI3Kδ; test: as above; assay type: biochemical; details: compound 1 μM; ATP 10 μM; read-out: PI3Kδ @ 1 μM (% Inh)
Source text: as §1
PI3Kδ assay: The PIP3 product is detected by displacement of biotin-PIP3 from an energy transfer complex consisting of Europium labeled anti-GST monoclonal antibody, a GST-tagged pleckstrin homology (PH) domain, biotinylated PIP3 and Streptavidin-Allophycocyanin (APC). Excitation of Europium in the complex results in an energy transfer to the APC and a fluorescent emission at 665 nm. The PIP3 product formed by PI3-Kinase (h) activity displaces biotin-PIP3 from the complex resulting in a loss of energy transfer and thus a decrease in signal. This is a 3-step reaction: First, the kinase reaction with PIP2 substrate is carried out in the presence of ATP (10 μM), and the reaction is quenched with stop Solution, and then finally detect by adding Detection Mixture followed by incubation (10 min). Reaction procedure: 1) Prepare substrate in freshly prepared Reaction Buffer. 2) Deliver kinase into the substrate solution and gently mix. 3) Deliver compounds in 100% DMSO (1 μM) into the kinase reaction mixture by Acoustic technology (Echo550; nanoliter range), incubate for 10 min at RT. 4) Deliver ATP into the reaction mixture to initiate the reaction. 5) Incubate for 30 min at 30° C. 6) Quench the reaction with Stop Solution. 7) Add Detection Mixture, and incubate for overnight. 8) Measure HTRF: Ex=320 nm, ratio of Em=615 nm and Em=665 nm. The emission ratio is converted into μM PIP3 production based on PIP3 standard curves. The nonlinear regression to obtain the standard curve and IC50 values are performed using Graphpad Prism software. Assay Buffer: HEPES 50 mM (pH7.0), NaN3 0.02%, BSA 0.01%, Orthovanadate 0.1 mM, 1% DMSO. Detection buffer: HEPES 10 mM (pH7.0), BSA 0.02%, KF 0.16 M, EDTA 4 mM. Substrate: 10 μM PIP2 substrate (PI(4,5)P2).

[4] = system: CD69+B220+ cells (mouse spleen cells); test: B cell activation assay (IgD-stimulated CD69 on B220+ spleen cells, FACS); assay type: cell-based; details: IgD 3 μg/mL 4 h

T1 sequence (Q06187 whole entry): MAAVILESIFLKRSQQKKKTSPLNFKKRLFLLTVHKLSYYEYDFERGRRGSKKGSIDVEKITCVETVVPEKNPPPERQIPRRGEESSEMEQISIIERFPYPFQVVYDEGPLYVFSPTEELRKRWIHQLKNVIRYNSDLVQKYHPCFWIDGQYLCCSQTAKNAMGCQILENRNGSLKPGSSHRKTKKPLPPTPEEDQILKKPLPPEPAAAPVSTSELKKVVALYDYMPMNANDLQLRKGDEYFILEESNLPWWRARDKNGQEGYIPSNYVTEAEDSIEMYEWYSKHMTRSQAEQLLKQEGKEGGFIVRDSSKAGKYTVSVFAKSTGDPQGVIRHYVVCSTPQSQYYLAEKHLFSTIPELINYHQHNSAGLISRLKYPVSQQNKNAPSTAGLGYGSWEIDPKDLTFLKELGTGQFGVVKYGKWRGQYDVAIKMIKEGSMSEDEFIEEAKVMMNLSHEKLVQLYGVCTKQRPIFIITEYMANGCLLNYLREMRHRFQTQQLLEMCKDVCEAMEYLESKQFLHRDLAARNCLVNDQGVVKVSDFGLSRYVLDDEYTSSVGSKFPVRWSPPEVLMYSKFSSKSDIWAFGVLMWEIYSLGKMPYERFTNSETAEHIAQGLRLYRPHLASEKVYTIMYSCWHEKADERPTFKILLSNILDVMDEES
T2 sequence (O00329 whole entry): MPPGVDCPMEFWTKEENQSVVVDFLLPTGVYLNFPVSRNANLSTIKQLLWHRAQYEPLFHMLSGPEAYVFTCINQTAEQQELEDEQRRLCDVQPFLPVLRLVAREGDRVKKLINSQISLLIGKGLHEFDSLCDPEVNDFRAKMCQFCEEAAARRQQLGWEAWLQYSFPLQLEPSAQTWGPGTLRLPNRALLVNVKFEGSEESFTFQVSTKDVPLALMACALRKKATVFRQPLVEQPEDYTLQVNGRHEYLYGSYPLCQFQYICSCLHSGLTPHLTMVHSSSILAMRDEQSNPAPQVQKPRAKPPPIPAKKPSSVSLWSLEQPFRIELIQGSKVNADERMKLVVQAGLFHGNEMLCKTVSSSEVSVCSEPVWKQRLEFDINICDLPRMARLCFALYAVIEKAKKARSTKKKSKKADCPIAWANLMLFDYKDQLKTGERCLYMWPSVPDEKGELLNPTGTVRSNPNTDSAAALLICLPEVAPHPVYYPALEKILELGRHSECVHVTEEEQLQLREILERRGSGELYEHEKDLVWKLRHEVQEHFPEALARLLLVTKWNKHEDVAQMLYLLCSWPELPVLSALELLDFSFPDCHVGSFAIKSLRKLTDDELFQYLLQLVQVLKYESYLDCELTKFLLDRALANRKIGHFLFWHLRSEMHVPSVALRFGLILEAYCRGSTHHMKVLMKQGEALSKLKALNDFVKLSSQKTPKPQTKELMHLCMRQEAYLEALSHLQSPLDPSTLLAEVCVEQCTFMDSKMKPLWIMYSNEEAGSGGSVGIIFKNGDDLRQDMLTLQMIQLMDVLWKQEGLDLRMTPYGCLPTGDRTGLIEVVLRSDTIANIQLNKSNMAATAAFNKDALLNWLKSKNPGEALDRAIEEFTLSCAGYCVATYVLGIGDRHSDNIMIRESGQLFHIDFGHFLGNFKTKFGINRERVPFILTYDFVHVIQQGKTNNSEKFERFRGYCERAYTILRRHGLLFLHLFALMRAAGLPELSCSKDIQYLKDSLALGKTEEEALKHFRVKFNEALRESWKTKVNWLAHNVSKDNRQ
T2 sequence (P27986 whole entry partner): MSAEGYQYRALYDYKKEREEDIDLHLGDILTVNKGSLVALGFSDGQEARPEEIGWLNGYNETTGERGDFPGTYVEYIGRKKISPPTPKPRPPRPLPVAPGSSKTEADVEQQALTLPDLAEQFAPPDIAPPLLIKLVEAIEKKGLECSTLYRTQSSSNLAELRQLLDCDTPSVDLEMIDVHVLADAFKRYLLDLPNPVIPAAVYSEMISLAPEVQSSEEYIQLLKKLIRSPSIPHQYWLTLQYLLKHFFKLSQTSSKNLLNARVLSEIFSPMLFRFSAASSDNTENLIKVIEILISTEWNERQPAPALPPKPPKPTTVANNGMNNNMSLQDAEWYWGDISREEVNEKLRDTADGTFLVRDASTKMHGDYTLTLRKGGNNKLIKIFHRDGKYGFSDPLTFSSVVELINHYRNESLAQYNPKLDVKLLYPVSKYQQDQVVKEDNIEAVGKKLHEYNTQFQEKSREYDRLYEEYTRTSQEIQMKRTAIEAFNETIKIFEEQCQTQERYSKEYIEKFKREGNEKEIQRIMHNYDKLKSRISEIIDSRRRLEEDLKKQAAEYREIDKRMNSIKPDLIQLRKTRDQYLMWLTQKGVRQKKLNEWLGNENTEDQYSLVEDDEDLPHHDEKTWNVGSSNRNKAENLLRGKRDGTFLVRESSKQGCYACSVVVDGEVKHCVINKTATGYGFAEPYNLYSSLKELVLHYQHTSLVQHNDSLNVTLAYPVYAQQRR

| SMILES | inhibition at 0.01 µM (BTK) [%] | inhibition at 0.1 µM (BTK) [%] | inhibition at 0.1 µM [1] [%] | inhibition at 0.01 µM (PI3Kδ [2]) [%] | inhibition at 0.1 µM (PI3Kδ [2]) [%] | inhibition at 1 µM (BTK) [%] | inhibition at 1 µM (PI3Kδ [3]) [%] | IC50 [4] [µM] |
| --- | --- | --- | --- | --- | --- | --- | --- | --- |
| Nc1ncnc2c1c(-c1cc(O)cc(F)c1)nn2CCNCc1ccccc1 [Compound 4, 3-{4-amino-1-[2-(benzylamino)ethyl]-1H-pyrazolo[3,4-d]pyrimidin-3-yl}-5-fluorophenol] | -1.37 | 14.8 | 39.1 ± 7.85 | 1.78 | 68 | – | – | – |
| CCC(=O)N(CCn1nc(-c2cc(O)cc(F)c2)c2c(N)ncnc21)Cc1ccccc1 [Compound 7, N-{2-[4-amino-3-(3-fluoro-5-hydroxyphenyl)-1H-pyrazolo[3,4-d]pyrimidin-1-yl]ethyl}-N-benzylpropanamide] | – | 19.9 | 66.5 ± 5.85 | – | 83.5 | 20.6 | 96.3 | 0.0819 ± 0.0065 |
| Nc1ncnc2c1c(-c1cc(O)cc(F)c1)nn2CCN(Cc1ccccc1)C(=O)C1CC1 [Compound 8, N-{2-[4-amino-3-(3-fluoro-5-hydroxyphenyl)-1H-pyrazolo[3,4-d]pyrimidin-1-yl]ethyl}-N-benzylcyclopropanecarboxamide] | – | 9.54 | – | – | 70 | 12.2 | 86.1 | – |
| C=CC(=O)N(CCn1nc(-c2cc(F)cc(OC(C)=O)c2)c2c(N)ncnc21)Cc1ccccc1 [Compound 9, 3-{4-amino-1-[2-(N-benzylprop-2-enamido)ethyl]-1H-pyrazolo [3,4-d]pyrimidin-3-yl}-5-fluorophenyl acetate] | – | 47.3 | – | – | 47 | 91.6 | 85.2 | – |
| C=CC(=O)N(CCn1cc(-c2ccc(Cl)c(O)c2)c2c(N)ncnc21)Cc1ccc(F)cc1 [Compound 13, N-{2-[4-amino-5-(4-chloro-3-hydroxyphenyl)-7H-pyrrolo[2,3-d]pyrimidin-7-yl]ethyl}-N-[(4-fluorophenyl)methyl]prop-2-enamide] | 95.6 | 98.6 | -165 ± 63 | 14 | 43 | – | – | – |
| C=CC(=O)N(CCn1nc(-c2ccc(Cl)c(O)c2)c2c(N)ncnc21)Cc1ccc(F)cc1 [Compound 14, N-{2-[4-amino-3-(4-chloro-3-hydroxyphenyl)-1H-pyrazolo[3,4-d]pyrimidin-1-yl]ethyl}-N-[(4-fluorophenyl)methyl]prop-2-enamide] | 86.5 | 96.1 | -135 ± 55.8 | 24.8 | 55 | – | – | – |
| C=CC(=O)N(CCn1nc(-c2ccc(Cl)c(O)c2)c2c(N)ncnc21)Cc1ccc(Cl)cc1 [Compound 15, N-{2-[4-amino-3-(4-chloro-3-hydroxyphenyl)-1H-pyrazolo[3,4-d]pyrimidin-1-yl]ethyl}-N-[(4-chlorophenyl)methyl]prop-2-enamide] | 48.5 | 92.1 | -103 ± 45.4 | 7.57 | 31.1 | – | – | – |
| C=CC(=O)N(CCn1nc(-c2ccc(Cl)c(O)c2)c2c(N)ncnc21)Cc1ccc(OC)cc1 [Compound 17, N-{2-[4-amino-3-(4-chloro-3-hydroxyphenyl)-1H-pyrazolo[3,4-d]pyrimidin-1-yl]ethyl}-N-[(4-methoxyphenyl)methyl]prop-2-enamide] | 90.3 | 96.2 | -61.1 ± 47.1 | 13.6 | 41.1 | – | – | – |
| C=CC(=O)N(CCn1nc(-c2cc(F)c3c(c2)NCCO3)c2c(N)ncnc21)Cc1ccc(Cl)cc1 [Compound 18, N-{2-[4-amino-3-(8-fluoro-3,4-dihydro-2H-1,4-benzoxazin-6-yl)-1H-pyrazolo [3,4-d]pyrimidin-1-yl]ethyl}-N-[(4-chlorophenyl)methyl]prop-2-enamide] | 62.5 | 93.1 | -7.39 ± 6.26 | 20.8 | 23.4 | – | – | – |
| C=CC(=O)N(CCn1nc(-c2ccc(Cl)c(O)c2)c2c(N)ncnc21)Cc1ccco1 [Compound 20, N-{2-[4-amino-3-(4-chloro-3-hydroxyphenyl)-1H-pyrazolo[3,4-d]pyrimidin-1-yl]ethyl}-N-(furan-2-ylmethyl)prop-2-enamide] | 90.3 | 95.4 | -82 ± 14.7 | 17.1 | 40.6 | – | – | – |
| Nc1ncnc2c1c(-c1cc(O)c(F)c(F)c1)nn2CCNc1ncccn1 [Compound 21, 5-(4-amino-1-{2-[(pyrimidin-2-yl)amino]ethyl}-1H-pyrazolo[3,4-d]pyrimidin-3-yl)-2,3-difluorophenol] | 9.64 | 37.1 | 18.2 ± 2.92 | 8.59 | 56.6 | – | – | – |
| Nc1ncnc2c1c(-c1cc(O)c(F)c(F)c1)nn2CCNCc1cccnc1 [Compound 23, 5-(4-amino-1-{2-[(pyridin-3-ylmethyl)amino]ethyl}-1H-pyrazolo[3,4-d]pyrimidin-3-yl)-2,3-difluorophenol] | 12.7 | 60.5 | 39.7 ± 10.2 | 3.31 | 66.7 | – | – | – |
| C=CC(=O)N(CCn1nc(-c2ccc(Oc3ccccc3)cc2)c2c(N)ncnc21)Cc1ccccc1 [Compound 24, N-{2-[4-amino-3-(4-phenoxyphenyl)-1H-pyrazolo[3,4-d]pyrimidin-1-yl]ethyl}-N-benzylprop-2-enamide] | 96.5 | 96.7 | 55.8 ± 9.1 | -32.3 | 0.74 | – | – | – |
